PubChem BioAssay AID220 (DTP/NCI, 2004)
Where “and” joins values, the source holds several entries; their conditions need not be identical. Identical values can stand only once. Records with an inconclusive call do not appear.

Test system: CD8F1 mice, subcutaneous mammary adenocarcinoma, T/C%
Assay: NCI In Vivo Anticancer Drug Screen. Data for tumor model Mammary Adenocarcinoma CD8F1 (subcutaneous) in CD8F1
Details: higher = larger tumour
Method in brief: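 Mice carrying transplanted tumors received test compound, and survival or tumor size was recorded. Each value is the treated-group measurement divided by the corresponding measurement in vehicle-dosed controls.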

[1] = endpoint: median tumor weight (est.), dose: 50.0 mg/kg/injection, schedule: Q07DX005 (ip), vehicle: saline
[2] = endpoint: median tumor weight (est.), dose: 25.0 mg/kg/injection, schedule: Q07DX005 (ip), vehicle: saline with Tween-80
[3] = endpoint: median tumor weight change, dose: 125.0 mg/kg/injection, schedule: Q01DX001 (ip), vehicle: Klucel (hydroxypropylcellulose) (HPC)
[4] = endpoint: median tumor weight (est.), dose: 200.0 mg/kg/injection, schedule: Q07DX005 (ip), vehicle: Klucel (hydroxypropylcellulose) (HPC)
[5] = endpoint: median tumor weight (est.), dose: 400.0 mg/kg/injection, schedule: Q07DX005 (ip), vehicle: Klucel (hydroxypropylcellulose) (HPC)

CNc1n[n+](-c2ccccc2)no1
T/C (endpoint: mean tumor weight, dose: 3.12 mg/kg/injection, schedule: Q07DX006 (ip), vehicle: saline): 90 % of control
T/C (endpoint: mean tumor weight, dose: 12.5 mg/kg/injection, schedule: Q07DX006 (ip), vehicle: saline): 27 % of control
T/C (endpoint: mean tumor weight, dose: 25.0 mg/kg/injection, schedule: Q07DX006 (ip), vehicle: saline): 81 % of control
T/C (endpoint: mean tumor weight, dose: 50.0 mg/kg/injection, schedule: Q07DX006 (ip), vehicle: saline): 2 % of control
T/C (endpoint: median tumor weight (est.), dose: 3.12 mg/kg/injection, schedule: Q07DX005 (ip), vehicle: saline): 157 % of control
T/C [1]: 50 % of control and 60 % of control

COC1=C2C[C@@H](C)C[C@@H](OC)[C@@H](O)[C@H](C)/C=C(\C)[C@@H](OC(N)=O)[C@H](OC)/C=C\C=C(/C)C(=O)NC(=CC1=O)C2=O
T/C (endpoint: median tumor weight change, dose: 1.25 mg/kg/injection, schedule: Q01DX001 (ip), vehicle: saline with Tween-80): 93 % of control and 98 % of control
T/C (endpoint: median tumor weight change, dose: 2.5 mg/kg/injection, schedule: Q01DX001 (ip), vehicle: saline with Tween-80): 117 % of control and 121 % of control
T/C (endpoint: median tumor weight change, dose: 5.0 mg/kg/injection, schedule: Q01DX001 (ip), vehicle: saline with Tween-80): 46 % of control

COc1cccc2c1C(=O)c1c(O)c3c(c(O)c1C2=O)CC(O)(C(=O)CO)CC3OC1CC(N)C(O)C(C)O1 (stereo not given)
T/C (endpoint: median tumor weight (est.), dose: 12.0 mg/kg/injection, schedule: Q07DX006 (ip), vehicle: saline): 37 % of control
T/C (endpoint: median tumor weight (est.), dose: 20.0 mg/kg/injection, schedule: Q07DX005 (ip), vehicle: water): 33 % of control
T/C (endpoint: median tumor weight (est.), dose: 24.0 mg/kg/injection, schedule: Q07DX006 (ip), vehicle: saline): 18 % of control
T/C (endpoint: median tumor weight (est.), dose: 30.0 mg/kg/injection, schedule: Q07DX005 (ip), vehicle: saline): 33 % of control
T/C (endpoint: median tumor weight (est.), dose: 30.0 mg/kg/injection, schedule: Q07DX005 (ip), vehicle: water): 11 % of control and 22 % of control
T/C (endpoint: median tumor weight (est.), dose: 45.0 mg/kg/injection, schedule: Q07DX005 (ip), vehicle: water): 1 % of control and 11 % of control
T/C (endpoint: median tumor weight (est.), dose: 48.0 mg/kg/injection, schedule: Q07DX006 (ip), vehicle: saline): 1 % of control
T/C (endpoint: median tumor weight (est.), dose: 60.0 mg/kg/injection, schedule: Q07DX005 (ip), vehicle: saline): 14 % of control and 18 % of control

CC[C@H]1CN2CCc3cc(OC)c(OC)cc3[C@@H]2C[C@@H]1C[C@H]1NCCc2cc(O)c(OC)cc21
T/C (endpoint: median tumor weight (est.), dose: 2.0 mg/kg/injection, schedule: Q07DX005 (ip), vehicle: saline): 67 % of control
T/C (endpoint: median tumor weight (est.), dose: 4.0 mg/kg/injection, schedule: Q07DX005 (ip), vehicle: saline): 95 % of control
T/C (endpoint: median tumor weight (est.), dose: 8.0 mg/kg/injection, schedule: Q07DX005 (ip), vehicle: saline): 92 % of control
T/C (endpoint: median tumor weight (est.), dose: 16.0 mg/kg/injection, schedule: Q07DX005 (ip), vehicle: saline): 47 % of control

O=c1n[n+]([O-])ccn1C1OC(CO)C(O)C1O (stereo not given)
T/C (endpoint: mean tumor weight, dose: 150.0 mg/kg/injection, schedule: Q07DX006 (ip), vehicle: saline): 175 % of control
T/C (endpoint: mean tumor weight, dose: 150.0 mg/kg/injection, schedule: Q07DX007 (ip), vehicle: saline): 50 % of control
T/C (endpoint: mean tumor weight, dose: 300.0 mg/kg/injection, schedule: Q07DX006 (ip), vehicle: saline): 90 % of control
T/C (endpoint: mean tumor weight, dose: 300.0 mg/kg/injection, schedule: Q07DX007 (ip), vehicle: saline): 60 % of control
T/C (endpoint: mean tumor weight, dose: 600.0 mg/kg/injection, schedule: Q07DX006 (ip), vehicle: saline): 33 % of control
T/C (endpoint: mean tumor weight, dose: 600.0 mg/kg/injection, schedule: Q07DX007 (ip), vehicle: saline): 65 % of control
T/C [1]: 82 % of control
T/C (endpoint: median tumor weight (est.), dose: 100.0 mg/kg/injection, schedule: Q07DX005 (ip), vehicle: saline): 93 % of control
T/C (endpoint: median tumor weight (est.), dose: 200.0 mg/kg/injection, schedule: Q07DX005 (ip), vehicle: saline): 71 % of control
T/C (endpoint: median tumor weight (est.), dose: 300.0 mg/kg/injection, schedule: Q07DX005 (ip), vehicle: saline): 101 % of control
T/C (endpoint: median tumor weight (est.), dose: 600.0 mg/kg/injection, schedule: Q07DX005 (ip), vehicle: saline): 106 % of control

CCCCCCCCCCCCSC1=C(Cl)C(=O)C(OC)=C(OC)C1=O
T/C [2]: 89 % of control
T/C (endpoint: median tumor weight (est.), dose: 100.0 mg/kg/injection, schedule: Q07DX005 (ip), vehicle: saline with Tween-80): 70 % of control

c1ccc([C@H]2CN3CCSC3=N2)cc1
T/C (endpoint: mean tumor weight, dose: 12.5 mg/kg/injection, schedule: Q07DX005 (ip), vehicle: saline): 107 % of control
T/C (endpoint: mean tumor weight, dose: 25.0 mg/kg/injection, schedule: Q07DX005 (ip), vehicle: saline): 105 % of control
T/C (endpoint: median tumor weight (est.), dose: 12.5 mg/kg/injection, schedule: Q07DX005 (ip), vehicle: saline): 92 % of control

CCc1ccc(C2=C(O)C(=O)C(c3ccccc3)=C(O)C2=O)cc1
T/C (endpoint: median tumor weight change, dose: 31.25 mg/kg/injection, schedule: Q01DX001 (ip), vehicle: Klucel (hydroxypropylcellulose) (HPC)): 84 % of control
T/C (endpoint: median tumor weight change, dose: 62.5 mg/kg/injection, schedule: Q01DX001 (ip), vehicle: Klucel (hydroxypropylcellulose) (HPC)): 106 % of control
T/C [3]: 59 % of control

O=C/C(Cl)=C(/Cl)C(=O)O
T/C (endpoint: median tumor weight (est.), dose: 2.5 mg/kg/injection, schedule: Q07DX005 (ip), vehicle: saline with Tween-80): 190 % of control
T/C (endpoint: median tumor weight (est.), dose: 5.0 mg/kg/injection, schedule: Q07DX005 (ip), vehicle: saline with Tween-80): 121 % of control
T/C (endpoint: median tumor weight (est.), dose: 10.0 mg/kg/injection, schedule: Q07DX005 (ip), vehicle: saline with Tween-80): 245 % of control

O=[n+]1c2ccccc2n([O-])c2ccccc21.[Cl][Ni][Cl]
T/C (endpoint: median tumor weight change, dose: 15.63 mg/kg/injection, schedule: Q01DX001 (ip), vehicle: saline with Tween-80): 87 % of control
T/C (endpoint: median tumor weight change, dose: 31.25 mg/kg/injection, schedule: Q01DX001 (ip), vehicle: saline with Tween-80): 52 % of control

[N-]=[N+]=[N-]
T/C (endpoint: median tumor weight change, dose: 3.0 mg/kg/injection, schedule: Q01DX001 (ip), vehicle: saline): 72 % of control
T/C (endpoint: median tumor weight change, dose: 6.0 mg/kg/injection, schedule: Q01DX001 (ip), vehicle: saline): 104 % of control
T/C (endpoint: median tumor weight change, dose: 12.0 mg/kg/injection, schedule: Q01DX001 (ip), vehicle: saline): 122 % of control
T/C (endpoint: median tumor weight change, dose: 24.0 mg/kg/injection, schedule: Q01DX001 (ip), vehicle: saline): 66 % of control

N=c1c(C(=O)OCc2ccccc2)ncc(CCl)n1O
T/C (endpoint: median tumor weight change, dose: 250.0 mg/kg/injection, schedule: Q01DX001 (ip), vehicle: saline with Tween-80): 78 % of control and 94 % of control
T/C (endpoint: median tumor weight change, dose: 500.0 mg/kg/injection, schedule: Q01DX001 (ip), vehicle: saline with Tween-80): 80 % of control and 82 % of control
T/C (endpoint: median tumor weight change, dose: 1000.0 mg/kg/injection, schedule: Q01DX001 (ip), vehicle: saline with Tween-80): 65 % of control and 81 % of control

COc1cccc2c1C(=O)c1c(O)c3c(c(O)c1C2=O)C[C@@](O)(C(C)=O)C[C@@H]3OC1CC(N(Cc2ccccc2)Cc2ccccc2)C(O)C(C)O1 (stereo not given in full)
T/C (endpoint: median tumor weight (est.), dose: 1.56 mg/kg/injection, schedule: Q07DX005 (ip), vehicle: saline with Tween-80): 68 % of control
T/C (endpoint: median tumor weight (est.), dose: 3.12 mg/kg/injection, schedule: Q07DX005 (ip), vehicle: saline with Tween-80): 72 % of control
T/C (endpoint: median tumor weight (est.), dose: 6.25 mg/kg/injection, schedule: Q07DX005 (ip), vehicle: saline with Tween-80): 75 % of control
T/C (endpoint: median tumor weight (est.), dose: 12.5 mg/kg/injection, schedule: Q07DX005 (ip), vehicle: saline with Tween-80): 29 % of control
T/C [2]: 9 % of control

O=C1C(NCC(O)CO)=C(N2CC2)C(=O)C(NCC(O)CO)=C1N1CC1 (stereo not given)
T/C (endpoint: median tumor weight change, dose: 4.0 mg/kg/injection, schedule: Q01DX001 (ip), vehicle: saline): 123 % of control
T/C (endpoint: median tumor weight change, dose: 4.0 mg/kg/injection, schedule: Q01DX001 (ip), vehicle: suspension in saline): 55 % of control
T/C (endpoint: median tumor weight change, dose: 8.0 mg/kg/injection, schedule: Q01DX001 (ip), vehicle: saline): 19 % of control
T/C (endpoint: median tumor weight change, dose: 8.0 mg/kg/injection, schedule: Q01DX001 (ip), vehicle: suspension in saline): 35 % of control (2×) and 55 % of control
T/C (endpoint: median tumor weight change, dose: 16.0 mg/kg/injection, schedule: Q01DX001 (ip), vehicle: saline): 3 % of control

O=Cc1ccc(C=O)c(Cl)c1
T/C [3]: 104 % of control
T/C (endpoint: median tumor weight change, dose: 250.0 mg/kg/injection, schedule: Q01DX001 (ip), vehicle: Klucel (hydroxypropylcellulose) (HPC)): 99 % of control
T/C (endpoint: median tumor weight change, dose: 500.0 mg/kg/injection, schedule: Q01DX001 (ip), vehicle: Klucel (hydroxypropylcellulose) (HPC)): 79 % of control
T/C (endpoint: median tumor weight change, dose: 1000.0 mg/kg/injection, schedule: Q01DX001 (ip), vehicle: Klucel (hydroxypropylcellulose) (HPC)): 117 % of control
T/C (endpoint: median tumor weight change, dose: 2000.0 mg/kg/injection, schedule: Q01DX001 (ip), vehicle: Klucel (hydroxypropylcellulose) (HPC)): 67 % of control

Cc1cc(C)c(-c2cc(O)c(C)cc2O)c(C)c1
T/C (endpoint: median tumor weight (est.), dose: 12.5 mg/kg/injection, schedule: Q07DX005 (ip), vehicle: Klucel (hydroxypropylcellulose) (HPC)): 56 % of control
T/C (endpoint: median tumor weight (est.), dose: 25.0 mg/kg/injection, schedule: Q07DX005 (ip), vehicle: Klucel (hydroxypropylcellulose) (HPC)): 150 % of control and 267 % of control
T/C (endpoint: median tumor weight (est.), dose: 50.0 mg/kg/injection, schedule: Q07DX005 (ip), vehicle: Klucel (hydroxypropylcellulose) (HPC)): 81 % of control
T/C [4]: 71 % of control
T/C [5]: 28 % of control

COC1=CC(=O)N(C(=O)C2CSC(C(CO)NC(=O)c3csc(/C=N/O)n3)=N2)C1 (stereo not given)
T/C (endpoint: median tumor weight (est.), dose: 100.0 mg/kg/injection, schedule: Q07DX005 (ip), vehicle: Klucel (hydroxypropylcellulose) (HPC)): 83 % of control
T/C [4]: 102 % of control
T/C [5]: 100 % of control
